Measurements from patent US20100035926A1, “PYRAZOLE DERIVATIVES AS NON-STEROIDAL GLUCOCORTICOID RECEPTOR LIGANDS” (priority 2006, published 2010).
Read-outs that look alike come from different tables or passages of the source.

How the values were obtained:
glucocorticoid receptor = molecular target: T1, glucocorticoid receptor (Homo sapiens, UniProt P04150); assay: Glucocorticoid Receptor Binding Assay (fluorescence polarisation, displacement of Alexa 555 labelled dexamethasone derivative); conditions: at least once in this assay; read-out: glucocorticoid binding pIC50 (converted)
T1 construct: a partially purified full length glucocorticoid receptor
T1 sequence (P04150 1-777): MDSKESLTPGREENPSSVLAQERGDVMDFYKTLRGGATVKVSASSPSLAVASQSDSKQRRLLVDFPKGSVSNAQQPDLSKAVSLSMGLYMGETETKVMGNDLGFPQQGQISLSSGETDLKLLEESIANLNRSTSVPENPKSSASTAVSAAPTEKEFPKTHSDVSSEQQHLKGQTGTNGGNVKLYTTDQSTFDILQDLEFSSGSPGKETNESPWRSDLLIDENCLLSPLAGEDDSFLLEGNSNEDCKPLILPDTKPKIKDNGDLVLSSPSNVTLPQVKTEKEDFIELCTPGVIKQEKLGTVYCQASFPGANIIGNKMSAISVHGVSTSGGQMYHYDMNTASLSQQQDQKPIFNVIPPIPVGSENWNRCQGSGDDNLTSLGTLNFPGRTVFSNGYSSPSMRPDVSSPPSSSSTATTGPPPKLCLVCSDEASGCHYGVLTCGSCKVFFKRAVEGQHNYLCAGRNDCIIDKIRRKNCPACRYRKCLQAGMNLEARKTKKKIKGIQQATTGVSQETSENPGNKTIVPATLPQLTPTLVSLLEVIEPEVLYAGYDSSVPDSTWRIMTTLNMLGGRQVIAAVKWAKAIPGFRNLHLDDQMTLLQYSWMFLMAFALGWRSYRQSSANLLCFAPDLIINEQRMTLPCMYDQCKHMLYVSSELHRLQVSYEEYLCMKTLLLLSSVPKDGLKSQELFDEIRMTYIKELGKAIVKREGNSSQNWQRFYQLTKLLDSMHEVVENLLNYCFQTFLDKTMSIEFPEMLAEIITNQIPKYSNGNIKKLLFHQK
Procedure, shortened: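 Partially purified full-length GR incubated with test compound and fluorescent dexamethasone plus GR-stabilising buffer components, 2 hr at room temperature in the dark. Binding scored as displacement of tracer, read as decrease in fluorescence polarisation.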

GR = molecular target: T2, GR (Homo sapiens, UniProt P04150); assay: GR Functional Assay - NFκB Assay (A549 SPAP cells, TNFα stimulated); assay type: cell-based; conditions: for Emax: agonists, read-out: average maximum asymptote in the NFkB assay
T2 construct: endogenous in cells; host or cells: A549 (human lung carcinoma, ECACC No. 86012804), stably transfected with reporter plasmids only
T2 sequence (P04150 1-777): T1 sequence (P04150 1-777)
Procedure, shortened: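 Stably transfected A549 SPAP cells at 0.16×10^6/ml in DMEM with 10% FCS were added to compound and stimulated with TNFα to drive NFκB-dependent SPAP expression. After 1 hr equilibration at room temperature, SPAP was read colorimetrically with pNPP in diethanolamine buffer, pH 9.8.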

Progesterone Receptor = molecular target: T3, Progesterone Receptor (Homo sapiens, UniProt P06401); assay: Assay for Progesterone Receptor Agonist Activity (CV-1 cells, PRb-BacMam, MMTV-BacMam); assay type: cell-based; conditions: at least once in this assay, read-out: progesterone receptor agonist pEC50 (converted)
T3 construct: expressed in transfected cells; host or cells: CV-1 cells transduced with PRb-BacMam and MMTV-BacMam
T3 sequence (P06401 1-933): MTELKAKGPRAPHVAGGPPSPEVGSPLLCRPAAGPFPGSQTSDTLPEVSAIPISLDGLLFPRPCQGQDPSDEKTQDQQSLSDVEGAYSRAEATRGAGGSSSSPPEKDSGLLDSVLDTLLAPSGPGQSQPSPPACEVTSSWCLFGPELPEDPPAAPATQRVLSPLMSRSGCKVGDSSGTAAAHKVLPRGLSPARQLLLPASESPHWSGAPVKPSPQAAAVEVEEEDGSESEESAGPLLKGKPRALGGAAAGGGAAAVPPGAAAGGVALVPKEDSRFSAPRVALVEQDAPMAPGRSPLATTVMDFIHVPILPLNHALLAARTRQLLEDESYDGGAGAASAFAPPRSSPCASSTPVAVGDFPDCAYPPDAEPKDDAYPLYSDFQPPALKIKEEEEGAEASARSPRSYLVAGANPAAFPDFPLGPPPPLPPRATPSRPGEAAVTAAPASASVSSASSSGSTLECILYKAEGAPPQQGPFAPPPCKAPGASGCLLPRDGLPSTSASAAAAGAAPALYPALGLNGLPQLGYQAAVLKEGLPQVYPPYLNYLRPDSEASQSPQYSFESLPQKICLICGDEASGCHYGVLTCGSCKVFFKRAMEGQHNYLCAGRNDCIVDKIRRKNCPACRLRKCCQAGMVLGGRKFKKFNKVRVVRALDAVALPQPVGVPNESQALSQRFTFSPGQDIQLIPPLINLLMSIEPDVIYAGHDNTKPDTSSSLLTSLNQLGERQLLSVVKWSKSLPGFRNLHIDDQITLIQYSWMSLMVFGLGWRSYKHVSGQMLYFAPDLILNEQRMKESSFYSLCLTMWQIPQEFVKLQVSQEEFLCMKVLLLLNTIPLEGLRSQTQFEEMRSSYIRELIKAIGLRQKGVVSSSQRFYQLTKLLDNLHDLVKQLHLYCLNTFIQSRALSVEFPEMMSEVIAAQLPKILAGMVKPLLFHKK

[1] = at least once in the NFkB assay, A549 SPAP cells, read-out: pIC50 in the NFkB assay (converted)
[2] = at least once, examples listed as agonists in NFkB and MMTV assays, read-out: potency pIC50 in the NFKB assay (converted)

Row | Structure (SMILES) | IC50 (glucocorticoid receptor) | Emax (GR; A549 SPAP cells) | IC50 (GR; [1]) | IC50 (GR; [2]) | EC50 (Progesterone Receptor)
1 | Nc1c(C(=O)NCC(O)(CN(CCF)C(=O)c2ccccc2)C(F)(F)F)cnn1-c1ccc(F)cc1 (racemic) [Example 1 (racemic), 5-Amino-1-(4-fluorophenyl)-N-(3,3,3-trifluoro-2-{[(2-fluoroethyl)(phenylcarbonyl)amino]methyl}-2-hydroxypropyl)-1H-pyrazole-4-carboxamide] | < 1000 nM | ≥ 40% | < 1000 nM | < 316 nM | > 1000 nM
2 | Nc1c(C(=O)NCC(O)(CN(CCF)C(=O)c2ccccc2F)C(F)(F)F)cnn1-c1ccc(F)cc1 (racemic) [Example 2 (racemic), 5-Amino-1-(4-fluorophenyl)-N-[3,3,3-trifluoro-2-([(2-fluoroethyl)[(2-fluorophenyl)carbonyl]amino]methyl)-2-hydroxypropyl]-1H-pyrazole-4-carboxamide] | < 1000 nM | ≥ 40% | < 1000 nM | < 316 nM | > 1000 nM
3 | CCN(CC(O)(CNC(=O)c1cnn(-c2ccc(F)cc2)c1N)C(F)(F)F)C(=O)c1cccc(F)c1F (racemic) [Example 5 (racemic), 5-Amino-N-(2-{[[(2,3-difluorophenyl)carbonyl](ethyl)amino]methyl}-3,3,3-trifluoro-2-hydroxypropyl)-1-(4-fluorophenyl)-1H-pyrazole-4-carboxamide] | < 1000 nM | ≥ 40% | < 1000 nM | < 316 nM | > 1000 nM
